Earlier results in patent US9878049B2, “High drug loading system to co-deliver anticancer drugs and nucleic acids for cancer therapy” (THE UNIVERSITY OF AKRON, priority 2013, dated 2018).

Settings: general statement, no test described

## CC[C@@]1(O)C(=O)OCc2c1cc1n(c2=O)Cc2cc3ccccc3nc2-1 [CPT, Camptothecin]
  water solubility: low water solubility
